Reference: patent US20190151304A1, “METHODS AND PHARMACEUTICAL COMPOSITIONS FOR THE TREATMENT OF AUTOIMMUNE INFLAMMATORY” (INSERM (INSTITUT NATIONAL DE LA SANTÉ ET DE LA RECHERCJAE …, priority 2016, published 2019)
No end group written: not given here.

How the values were obtained:
EAE mice = experiment: Chronic experimental autoimmune encephalomyelitis (EAE) induced with MOG35-55; type: in vivo, C57BL/6 mice; settings: for Histopathological EAE score (spinal cord): 30 days post-immunization; for Regulatory T cell (Treg) proportion in draining lymph nodes: day 30 post-immunization, flow cytometry, versus PBS controls; for Clinical features of EAE (clinical score 0-5): orexin A 100 or 300 μg per mouse for 5 days, IP or retro-orbital, before onset or at moderate EAE score
Description: EAE was induced with 100 μg of MOG35-55 (Myelin Oligodendrocyte Glycoprotein 35-55) as previously described (Proc Natl Acad Sci USA. 106(6):2012-7, 2009) to 9 week old female C57BL/6 wild-type (WT) mice (n=10/group). Panels show clinical signs of EAE scored daily in a blinded fashion for over 30 days on a scale of 0-5 as follows: 0, no detectable clinical signs, 1, waddling gait with limp tail, 2, ataxia with full paralysis of one limb, 3, full paralysis of two limbs, 4, full paralysis of two limbs with important weight loss (>20% of initial weight) and 5, moribund or dead. Then, mice were given:
Panel A, intraperitoneally (IP) either PBS (group PBS IP), 100 μg of orexin A per mouse for 5 days on day 3 (=before the onset, group BOxA100 IP) or at a moderate EAE score (=1,5-2 for group OxA100 IP).
Panel B, intraperitoneally either PBS (group PBS), 100 μg (group OxA100 IP) or 300 μg (group OxA300 IP) of orexin A per mouse for 5 days at a moderate EAE score (=1,5-2).
Panel C, either PBS (group PBS), 300 μg of orexin A per mouse intraperitoneally (group OxA300 IP) or retro-orbitally (RO) (group OxA300 RO) for 5 days at a moderate EAE score (=1,5-2).
The EAE score is shown as mean+/−SEM. *P<0.05 (nonparametric t-test, compared to PBS group).
FIG. 5. […] 30 days post-immunization, mice (from the PBS, OxA300 RO, and OxA300 IP groups of FIG. 2, panel C) were sacrificed and spinal cords were harvested, fixed overnight in 4% paraformaldehyde and stored in 70% ethanol. Spinal cords were then embedded in paraffin and cut in […] section. After haematoxylin/eosin (to distinguish cell infiltration) and luxol fast blue (to label myelin) staining, photography was performed at ×1,25 and ×10 magnifications for the spinal cord sections of PBS, OxA300 RO and OxA300 IP mice. […] Histopathology grading was as follows: 0—normal appearance, 1—some infiltrated cells and low demyelination, 2—2 or 3 infiltrated areas and low demyelination, 3—numerous infiltrated areas and strong demyelination, 4—important cell infiltration throughout the tissue with strong demyelination. *P<0.05 (nonparametric t-test, compared to PBS group).
FIG. 6. […] It was determined 30 days after EAE induction of PBS, OxA300 RO, and OxA300 IP mice (from FIG. 2, panel C) by real time RT-qPCR as previously described (Proc Natl Acad Sci USA. 106(6):2012-7, 2009). *P<0.05 (nonparametric t-test, compared to PBS group).
FIG. 7. […] On day 30 post-immunization, draining lymph nodes were harvested from the naïve, PBS, OxA300 RO, and OxA300 IP groups (FIG. 2, panel C). Assessment by flow cytometry was performed by using the mouse regulatory T cell staining kit: lymph node Tregs were defined as […] and proliferative Tregs as CD4^+CD25^+Foxp3^+Ki67^+ cells.
Histograms represent the mean of the percentage (left) and the total number (right) of Tregs and proliferative Tregs (Ki67^+Tregs) for each group. Bars represent the mean+/−SEM of 5 individual mice. *P<0.05 (non parametric t-test, compared to PBS group).
Therefore, orexin A presents potent intrinsic anti-inflammatory properties, capable of modulating the Th/Treg homeostasis during an auto-immune response as aggressive as in a chronic EAE model.

HEK-OX1R cells = experiment: Cells growth determination, HEK-OX1R cells; type: cell-based; settings: 48 hr; OxA 0.1 μM, SB408124 increasing concentrations
Description: (§1) FIG. 12: Determination of the inhibition of cellular growth of HEK-OX1R cells and colon adenocarcinoma cells (HT-29) induced by 0.1 μM of OxA or various concentrations of SB408124 antagonist. HEK-OX1R cells (black column) and HT-29 cells (white column) were incubated with 0.1 μM of OxA and indicated increasing concentration of SB408124, and cells were counted after 48 hr incubation. Results are expressed as the percentage of total viable cells.
(§2) Cells growth determination and apoptosis assay: HEK-OX1R cells or colon adenocarcinoma HT-29 cells were seeded, grown and maintained at 37° C. in a humidified 5% CO2/air incubator. After 24 hr culture, cells were treated with or without Orexin-A peptide or SB408124 antagonist, previously dissolved in DMSO, to be tested at the concentration indicated in the figure legends. After 48 hr of treatment, adherent cells were harvested by Trip1E (Life Technologies, Saint Aubin, France) and manually counted. Apoptosis was determined using the Guava PCA system and the Guava nexin kit.

[1] = system: colon adenocarcinoma HT-29 cells; experiment: Cells growth determination, HT-29 cells; type: cell-based; settings: 48 hr; OxA 0.1 μM, SB408124 increasing concentrations
Description: as §1, §2

[2] = 30 days after EAE induction, RT-qPCR, OxA 300 μg RO or IP

## OxA: neuropeptide, endogenous ligand of OX1R and OX2R, with two disulphide bridges (QPLPDCCRQKTCSCRLYELLHGAGNHAAGILTL; disulfide (positions not given here); ends not checked; also: two disulphide bridges, pairing not given here; UniProt O43612 34-66, looked up)
EAE mice; [2]
  Th1-specific (IFNγ) cytokine gene expression in the brain: efficiently suppresses
  Th17-specific (IL-17) cytokine gene expression in the brain: efficiently suppresses
EAE mice; OxA 300 μg RO or IP, listed as Orexin A
  Histopathological EAE score (spinal cord): significantly decreases
EAE mice; OxA 300 μg RO or IP, listed as orexin A
  Histopathological EAE score (spinal cord): drastic reduction
EAE mice; listed as Orexin A
  Regulatory T cell (Treg) proportion in draining lymph nodes: increased
  Clinical features of EAE (clinical score 0-5): dramatically alleviate
EAE mice; listed as orexin A
  Regulatory T cell (Treg) proportion in draining lymph nodes: increase
  Clinical features of EAE (clinical score 0-5): significantly ameliorated
EAE mice; orexin A treated-mice versus PBS controls
  Th1/Th17 pro-inflammatory responses in the CNS tissues: drastic reduction
HEK-OX1R cells
  Inhibition of cellular growth of HEK-OX1R cells: strong inhibition
[1]
  Inhibition of cellular growth of HT-29 cells: strong inhibition
